# Data published in US20190240344A1, “FUNCTIONAL RNA AND SMALL-MOLECULE DRUG THERAPEUTIC COMPLEXES AND NANOPARTICLE DELIVERY VEHICLES” (EOS BIOSCIENCES, INC., priority 2016, published 2019).
# Columns and labels:
# [1] = system: JIMT1 cells (trastuzumb-resistant human breast cancer); assay: Cell viability of JIMT1 cells after transfection (Celltiter Glo, ATP); type: cell-based; details: three doses, 24, 48, 72 hours, RNAiMax lipofectamine carrier (doxorubicin alone without lipofectamine)
# Experimental: (§1) To measure the effect of the complexes on cell viability, the formed complexes were transfected into JIMT1 cells (trastuzumb-resistant human breast cancer). Approximately 10,000 cells per well were plated in 96-well plates, maintained in RPMI 1640 medium with 100% fetal bovine serum, 100 U/mL penicillin, 100 μg/mL streptomycin at 37° C. under 5% CO2. After 24 hours, the culture media was replaced with Opti-MEM I reduced serum medium (Invitrogen Life Technologies). RNAiMax lipofectamine (Invitrogen Life Technologies) was used as a carrier for siRNA, Dox:siRNA complexes, and the Dox:DNA oligo complex delivery. Doxorubicin was administered to the control sample without the lipofectamine. Three hours following transfection, the medium in each sample was replaced with complete culture media. After 24, 48, or 72 hours, relative cell viability was determined by quantifying ATP using Celltiter Glo Luminescent Cell Viability Kit (Promega), according to the manufacturer's instructions. Experiments were conducted in triplicate. Results are shown in FIG. 5A (24 hours), 5B (48 hours), and SC (72 hours).
# [2] = system: 4T1-Fluc-Neo/eGFP-Puro cells (mouse mammary carcinoma cells); assay: Cell viability of 4T1-Fluc-Neo/eGFP-Puro cells after transfection (Celltiter Glo, ATP); type: cell-based; details: three doses, 24 hours, RNAiMax lipofectamine carrier (doxorubicin alone without lipofectamine)
# Experimental: as §1, with “4T1-Fluc-Neo/eGFP-Puro” for “JIMT1”, “(mouse mammary carcinoma cells stably expressing FLuc and eGFP).” for “(trastuzumb-resistant human breast cancer).”, “[…],” for “100%”, “siScrm2, dox:siScrm2, siRNA3, or dox:siRNA3” for “siRNA, Dox:siRNA complexes, and the Dox:DNA oligo complex”, “24” for “24, 48, or 72”, “triplicate.” for “triplicate. Results are shown in FIG. 5A (24 hours), 5B (48 hours), and SC (72 hours).”
structure (smiles),measurement,setting,value
COc1cccc2c1C(=O)c1c(O)c3c(c(O)c1C2=O)C[C@@](O)(C(=O)CO)C[C@@H]3O[C@H]1C[C@H](N)[C@H](O)[C@H](C)O1 [doxorubicin],relative cell viability,[1],dose-dependent decrease in cell viability
same,relative cell viability,[2],dose-dependent decrease in cell viability
